pKi: −log10 of the molar value.
Molecular target: T1, spin-labeled SULT1E1, spin label attached at Cys residue 16 (C69S/G16C) (Homo sapiens, UniProt P49888, C69S/G16C)
T1 construct: E. coli codon-optimized SULT1E1 coding region inserted into the PreScission Protease cleavage site; His/GST/MBP triple tag (N, cleaved yes); made in house; host or cells: E. coli BL21(DE3)
T1 sequence (P49888 1-294 G16C/C69S): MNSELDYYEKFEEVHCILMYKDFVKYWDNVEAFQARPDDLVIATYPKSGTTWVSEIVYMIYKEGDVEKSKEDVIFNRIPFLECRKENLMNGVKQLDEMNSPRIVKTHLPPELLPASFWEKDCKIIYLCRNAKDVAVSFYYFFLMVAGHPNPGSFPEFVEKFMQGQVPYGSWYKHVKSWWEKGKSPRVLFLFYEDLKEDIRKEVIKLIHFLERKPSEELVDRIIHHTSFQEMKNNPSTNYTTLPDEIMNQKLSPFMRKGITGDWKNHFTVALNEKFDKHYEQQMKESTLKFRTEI
Assay: Initial-rate studies, spin-labeled construct (label at Cys 16)
Format: biochemical
Settings: spin label at Cys 16; parentheses = one SD; read-out: Ki OH-PCB1
Method: Spin labels were attached to the SULT1E1 scaffold at Cys residues that were site-specifically incorporated via PCR-based mutagenesis. Prior to creating spin-label attachment constructs, reactive Cys was removed from the native scaffold. Only one of the four native SULT1E1 Cys (i.e., C69) reacts with DTNB ([39]), and mutagenic conversion of C69 to ser produced a stable, fully active non-DTNB-reactive scaffold. Five individual cys-attachment constructs were prepared from the C69S mutant (G16C, K25C, N150C, Q163C, and N233C). Mutants were labeled (see, Experimental procedures) and the initial rate parameters (kcat, Km and Ki) of each spin-labeled mutant were determined (see, Experimental procedures, Initial-Rate studies) to evaluate whether the catalytic integrity of the constructs had been compromised by the insertions and/or spin label attachments. […]
Labels (N-cyclohexylmale-imide or 3-maleimido-PROXYL) were added in 20-fold excess over reactive cysteine to a solution containing SULT1E1 construct (50 μM active sites), 0.50 mM PAP, and 50 mM KPO4 (pH 7.4), 25 °C ± 2 deg. […] The reactions were monitored by using DTNB to measure unreacted cysteine and were considered complete when >98% of the cysteine had reacted (∼3 h).
C. Reaction progress was monitored via the fluorescence change associated with 1-HP sulfonation (λex = 325 nm, λem = 370 nm ([51], [52])). […]

`Oc1ccc(-c2c(Cl)cccc2Cl)cc1` [OH-PCB1, 4ʹ-OH-2,6-dichlorobiphenol] gave a pKi of 7.20.

Source: publication PMC7949139, “The molecular basis of OH-PCB estrogen receptor activation” (The Journal of Biological Chemistry, 2021)
